Data taken from the SangsterLogP compilation.

Test: method code SF-HPLC, from DOI: 10.1002/jlac.1995199512305
Conditions: not given

logP	SMILES
0.79	Cc1cn(C2CC(N=[N+]=[N-])C(COP(=O)(OCC3OC(n4cc(C)c(=O)[nH]c4=O)CC3N=[N+]=[N-])C(O)c3cccc([N+](=O)[O-])c3)O2)c(=O)[nH]c1=O (stereo unspecified)
0.79	Cc1cn(C2CC(N=[N+]=[N-])C(COP(=O)(OCC3OC(n4cc(C)c(=O)[nH]c4=O)CC3N=[N+]=[N-])C(O)c3ccccc3)O2)c(=O)[nH]c1=O (stereo unspecified)
0.49	Cc1cn(C2CC(N=[N+]=[N-])C(COP(=O)(OCC3OC(n4cc(C)c(=O)[nH]c4=O)CC3N=[N+]=[N-])C(O)c3ccc(C#N)cc3)O2)c(=O)[nH]c1=O (stereo unspecified)
0.73	Cc1cn(C2CC(N=[N+]=[N-])C(COP(=O)(OCC3OC(n4cc(C)c(=O)[nH]c4=O)CC3N=[N+]=[N-])C(O)c3c([N+](=O)[O-])cccc3[N+](=O)[O-])O2)c(=O)[nH]c1=O (stereo unspecified)
0.79	Cc1cn(C2CC(N=[N+]=[N-])C(COP(=O)(OCC3OC(n4cc(C)c(=O)[nH]c4=O)CC3N=[N+]=[N-])C(O)c3ccccc3[N+](=O)[O-])O2)c(=O)[nH]c1=O (stereo unspecified)

Test: not given
Conditions: pH 7.4

SMILES	logD
COc1cc([N+](=O)[O-])cc(C=CC(=O)N2CCC3(CC2)C(=O)NCN3c2ccccc2)c1OC	3
O=C(Cc1c[nH]c2ccc(Br)cc12)N1CCN(c2ccc([N+](=O)[O-])c3nonc23)CC1	3
O=C(OCc1ccc2snnc2c1)N1CCC2(CC1)C(=O)NCN2c1ccccc1	3.4
O=C(CCc1cccc2c1OCO2)N1CCC2(CC1)C(=O)NCN2c1ccccc1	2.8
COc1cc([N+](=O)[O-])cc(CC(=O)N2CCC(n3c(=O)[nH]c4ccccc43)CC2)c1OC	2.4

Test: method code SF-HPLC, from DOI: 10.1023/a:1015956705293, PMID: 3244625
Conditions: not given

logP	SMILES
2.03	CN(C)C(=O)CCC(=O)OCC(=O)[C@@]1(O)CC[C@H]2[C@@H]3CCC4=CC(=O)CC[C@]4(C)[C@H]3[C@@H](O)C[C@@]21C
2.58	COC(=O)CCC(=O)OCC(=O)C1(O)CCC2C3CCC4=CC(=O)CCC4(C)C3C(O)CC21C (stereo unspecified)
2.79	C[C@]12CCC(=O)C=C1CC[C@@H]1[C@@H]2[C@@H](O)C[C@@]2(C)[C@H]1CC[C@]2(O)C(=O)COC(=O)CCCCCO

Same assay, conditions: pH 2.5

logD	SMILES
2.11	CC12CCC(=O)C=C1CCC1C2C(O)CC2(C)C1CCC2(O)C(=O)COC(=O)CCC(=O)O (stereo unspecified)

Same assay, conditions: pH 3.3

logD	SMILES
3.26	C[C@]12CCC(=O)C=C1CC[C@@H]1[C@@H]2[C@@H](O)C[C@@]2(C)[C@H]1CC[C@]2(O)C(=O)COC(=O)CCCCCC(=O)O

Test: method code SF, from DOI: 10.1021/jm00167a034, PMID: 2329572
Conditions: pH 7.4

logD	SMILES
0.34	Cc1cn([C@H]2C[C@H](N=[N+]=[N-])[C@@H](COC(=O)CN3CCOCC3)O2)c(=O)[nH]c1=O
0.96	Cc1cn([C@H]2C[C@H](N=[N+]=[N-])[C@@H](COC(=O)CN3CCN(c4ccccc4)CC3)O2)c(=O)[nH]c1=O
0.86	Cc1cn([C@H]2C[C@H](N=[N+]=[N-])[C@@H](COC(=O)C3=CN(C)C=CC3)O2)c(=O)[nH]c1=O
1.25	CC1=C(/C=C/C(C)=C/C=C/C(C)=C/C(=O)OC[C@H]2O[C@@H](n3cc(C)c(=O)[nH]c3=O)C[C@@H]2N=[N+]=[N-])C(C)(C)CCC1
0.52	Cc1cn(C2CC(N=[N+]=[N-])C(COC(=O)C(N)Cc3ccccc3)O2)c(=O)[nH]c1=O (stereo unspecified)

Test: from Jayashree, Bs.; Sahu, A.; MM, S.; Venugopala, K. (2006). Synthesis, characterization and determination of partition coefficient of some triazolo thiadiazinyl chlorocoumarin derivatives for their …
Conditions: pH 7.4

SMILES	logD
O=c1oc2ccc(Cl)cc2cc1C1=Nn2c(COc3ccc(Cl)cc3)nnc2SC1	1.33
O=c1oc2ccc(Cl)cc2cc1C1=Nn2c(nnc2-c2ccncc2)SC1	1.18

Next, values leading:

logD	SMILES
1.49	O=c1oc2ccc(Cl)cc2cc1C1=Nn2c(nnc2-c2ccc(Cl)cc2)SC1
1.51	O=c1oc2ccc(Cl)cc2cc1C1=Nn2c(nnc2-c2ccc(Br)cc2)SC1
1.53	O=c1oc2ccc(Cl)cc2cc1C1=Nn2c(nnc2-c2ccccc2Cl)SC1

Test: not given
Conditions: not given

SMILES	logP
CCN1C=CCC(C(=O)OC2CCC3C4CCc5cc(O)ccc5C4CC23C)=C1 (stereo unspecified)	4.66
CCCCCCN1C=CCC(C(=O)OC2CCC3C4CCc5cc(O)ccc5C4CC23C)=C1 (stereo unspecified)	5.07

Results, then the compound that gave them:

logP	SMILES
4.89	CC12CC3c4ccc(O)cc4CCC3C1CCC2OC(=O)C1=CN(CCCO)C=CC1 (stereo unspecified)
4.79	CCCN1C=CCC(C(=O)OC2CCC3C4CCc5cc(O)ccc5C4CC23C)=C1 (stereo unspecified)
5.39	CC12CC3c4ccc(O)cc4CCC3C1CCC2OC(=O)C1=CN(Cc2ccccc2)C=CC1 (stereo unspecified)

Test: method code SF, from DOI: 10.1021/js9700917, PMID: 9452977
Conditions: pH 5.5

logD	SMILES
0.52	NC(=S)NS(=O)(=O)c1ccc(N)cc1

Test: not given
Conditions: not given
Remark: another data set of the same source

SMILES	logP
NC(=O)c1ccc2c(ccn2CC(=O)Oc2ccccc2-c2ccccc2)c1	2.3
CCCCCCCCc1ccc(OC(=O)Cn2ccc3cc(C(N)=O)ccc32)cc1	5.5

Continued, values first:

logP	SMILES
3.2	O=C(Cn1ccc2cc(C(=O)O)ccc21)Oc1ccc(-c2ccccc2)cc1
7.1	CCCCCCCCCCOc1ccc(OC(=O)Cn2ccc3cc(C(=O)O)ccc32)cc1
3.1	O=C(Cn1ccc2cc(C(=O)O)ccc21)Oc1cccc(-c2ccccc2)c1

Test: not given
Conditions: not given
Remark: another data set of the same source

logP	SMILES
2.35	CCOCn1c(Cc2ccccc2)c(C(C)C)c(=O)[nH]c1=O

Test: method code SF-GLC, from DOI: 10.1007/bf00343116, PMID: 4026577
Conditions: not given

SMILES	logP
N#CCCCCCCCCC#N	1.75
N#CCCCC#N	-0.72
N#CCCCCC#N	-0.32
N#CCCC#N	-0.99

Test: method code SF-AS, from DOI: 10.1007/s001289900158, PMID: 8661463
Conditions: not given

logP	SMILES
0.93	Clc1ccc(Cl)nn1
1.96	O=[N+]([O-])c1ccc(Cl)nc1Cl
0.45	O=[N+]([O-])c1c(Cl)ncnc1Cl
1.07	NNc1nc(NN)nc(Nc2ccccc2)n1

Test: method code SF-HPLC, from DOI: 10.1007/bf00269028, PMID: 6488439
Conditions: not given

logP	SMILES
-1.64	Nc1ccn([C@@H]2O[C@@H]3CO[C@H]2[C@@H]3O)c(=O)n1
-1.49	Nc1cc[nH]c(=O)n1
-0.57	Cc1c[nH]c(=O)[nH]c1=O
-1.05	Nc1ccn(C2OC(CCl)C(O)C2O)c(=O)n1 (stereo unspecified)

Test: not given
Conditions: not given
Remark: another data set of the same source

SMILES	logP
FC(F)(Cl)Cl	1.93
FC(F)(Cl)C(F)(F)Cl	2.66
FCC(F)(Cl)Cl	1.51
FC(F)(F)C(F)(F)Cl	2.23

Test: method code SF, from DOI: 10.1021/jm020886c, PMID: 12852752
Conditions: pH 7.4

logD	SMILES
3.53	CN(CCCSCCOCCc1ccccc1)CCc1ccc(O)c2[nH]c(=O)sc12
1.34	O=c1[nH]c2c(O)ccc(CCNCCCS(=O)(=O)CCCOCc3ccccc3)c2s1
1.13	O=c1[nH]c2c(O)ccc(CCNCCCS(=O)(=O)CCOCCc3ccccc3)c2s1
3.44	CC(C)(CNCCc1ccc(O)c2[nH]c(=O)sc12)CSCCOCCc1ccccc1
1.24	CN(CCCNCCc1ccc(O)c2[nH]c(=O)sc12)S(=O)(=O)CCCOCCc1ccccc1

Test: method code SF-AS, from PMID: 640322
Conditions: pH 4.0

SMILES	logD
NC(=O)N(CCCN(N=O)C(N)=O)N=O	-0.3
CC(C)CN(N=O)C(N)=O	1.04
CCCN(N=O)C(N)=O	0.3
CCN(N=O)C(N)=O	-0.15

Test: method code SF-GLC, from DOI: 10.1021/es60155a010
Conditions: not given

SMILES	logP
CC(C)(C)c1ccc(OP(=O)(Oc2ccccc2)Oc2ccccc2)cc1	5.12
CC(C)c1ccc(OP(=O)(Oc2ccccc2)Oc2ccccc2)cc1	5.31
CC(C)CCCCCCCOP(=O)(Oc1ccccc1)Oc1ccccc1	5.44
CCCCC(CC)COP(=O)(OCC(CC)CCCC)OCC(CC)CCCC (stereo unspecified)	4.23
Cc1ccc(OP(=O)(Oc2ccc(C)cc2)Oc2ccc(C)cc2)cc1	5.11

Test: method code SF-AS, from DOI: 10.1211/0022357001777513, PMID: 11186244
Conditions: pH 7.3

logD	SMILES
4.67	OCC(O)COc1ccccc1-c1c2nc(c(-c3ccccc3OCC(O)CO)c3ccc([nH]3)c(-c3ccccc3OCC(O)CO)c3nc(c(-c4ccccc4OCC(O)CO)c4ccc1[nH]4)C=C3)C=C2 (stereo unspecified)
4.58	Oc1ccccc1-c1c2nc(c(-c3ccccc3O)c3ccc([nH]3)c(-c3ccccc3O)c3nc(c(-c4ccccc4O)c4ccc1[nH]4)C=C3)C=C2
4.6	Oc1cccc(-c2c3nc(c(-c4cccc(O)c4F)c4ccc([nH]4)c(-c4cccc(O)c4F)c4nc(c(-c5cccc(O)c5F)c5ccc2[nH]5)C=C4)C=C3)c1F
2.51	OCC(O)COc1c(F)ccc(-c2c3nc(c(-c4ccc(F)c(OCC(O)CO)c4F)c4ccc([nH]4)c(-c4ccc(F)c(OCC(O)CO)c4F)c4nc(c(-c5ccc(F)c(OCC(O)CO)c5F)c5ccc2[nH]5)C=C4)C=C3)c1F (stereo unspecified)
4.93	OCC(O)COc1ccc(-c2c3nc(c(-c4ccc(OCC(O)CO)cc4)c4ccc([nH]4)c(-c4ccc(OCC(O)CO)cc4)c4nc(c(-c5ccc(OCC(O)CO)cc5)c5ccc2[nH]5)C=C4)C=C3)cc1 (stereo unspecified)

Test: not given
Conditions: not given
Remark: another data set of the same source

SMILES	logP
CCCCCC[N+](=O)[O-]	2.7
CC(C)C[N+](=O)[O-]	1.4
CC(C)[N+](=O)[O-]	0.8
CCC(C)[N+](=O)[O-] (stereo unspecified)	1.2
